Results published in patent US20230278972A1, “SUBSTITUTED HALOALKYL SULFONANILIDE HERBICIDES” (FMC Corporation, priority 2020, published 2023).

Key:
Assay type in all cases: in vivo
[1] = system: Oat, Wild (wild oat, Avena fatua); assay: Test A1 postemergence, Oat, Wild; conditions: for Oat, Wild plant response rating: postemergence; for Plant response rating, Oat, Wild: Postemergence
Outline: (§1)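 Pre: seeds in loam/sand blend, directed soil spray. Post: potted plants, same soil, 2–10 cm, 1–2 leaf stage. Chemicals in non-phytotoxic solvent + surfactant for both.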

[2] = system: barnyardgrass (Echinochloa crus-galli); assay: Test B1 flooded paddy test, barnyardgrass; conditions: 250 g ai/ha, Flood, applied to paddy water, 2-leaf stage, visually evaluated after 10 to 14 days
Description: A dash (-) response means no test result.

[3] = system: Oat, Wild (wild oat, Avena fatua); assay: Test A1 preemergence, Oat, Wild
Outline: as §1

corn (Zea mays) = assay: Test A1 postemergence, corn; conditions: for Plant response rating, Corn: Postemergence; for Corn plant response rating: postemergence
Outline: as §1

[4] = system: Foxtail, Giant (giant foxtail, Setaria faberi); assay: Test A1 preemergence, Foxtail, Giant
Outline: as §1

[5] = 31 g ai/ha, 0 to 100 scale (0 no effect, 100 complete control)
[6] = 125 g ai/ha, 0 to 100 scale, 0 no effect, 100 complete control
[7] = 31 g ai/ha, 0 to 100 scale (0 no effect, 100 complete control), 10 days
[8] = 125 g ai/ha, 0 to 100 scale (0 no effect, 100 complete control), 10 days
[9] = 125 g ai/ha, 0 to 100 scale (0 no effect, 100 complete control)

SMILES | Oat, Wild plant response rating [1, 5] | Plant response rating, Oat, Wild ([1]; 125 g ai/ha, 0 to 100 scale) | Plant response rating, Barnyardgrass (0 to 100 scale, 0 is no effect, 100 is complete control) [2] | Plant response rating, Oat, Wild [3, 5] | Plant response rating, Oat, Wild [3, 6] | Plant response rating, Corn (corn (Zea mays); [7]) | Plant response rating, Corn (corn (Zea mays); 125 g ai/ha, 0 to 100 scale) | Plant response rating, Foxtail, Giant [4, 5] | Plant response rating, Foxtail, Giant [4, 6] | Plant response rating, Oat, Wild [1, 8] | Corn plant response rating (corn (Zea mays); [5]) | Plant response rating, Corn (corn (Zea mays); [8]) | Plant response rating, Oat, Wild [1, 7] | Plant response rating, Oat, Wild [3, 9] | Plant response rating, Foxtail, Giant [4, 9]
CCOC(=O)N(c1cc(C2=NOC3CCCC23)c(CC)cc1C)S(=O)(=O)C(F)(F)F (centres unmarked) [Compound 379] | 0 | 20 | 95 | 0 | 20 | 0 | 0 | 0 | 70 | – | – | – | – | – | –
Cc1c(C(=O)N2C[C@@H](C)O[C@H](C)C2)cc(N(COC(=O)C(C)(C)C)S(=O)(=O)C(F)(F)F)c(C)c1C (relative stereo) [Compound 373] | 0 | 10 | 95 | 0 | 0 | 0 | 40 | 0 | 90 | – | – | – | – | – | –
Cc1cc(Cl)c(NS(=O)(=O)C(F)(F)F)cc1N1CCC2(CCCCC2)C1=O [Compound 393] | 0 | – | 0 | 10 | 70 | – | – | 70 | 100 | 10 | 0 | 30 | – | – | –
COC1CCN(C(=O)c2cc(N(COC(=O)C(C)(C)C)S(=O)(=O)C(F)(F)F)c(C)c(C)c2C)CC1 [Compound 370] | 0 | 0 | 95 | 0 | 0 | 0 | 90 | 10 | 90 | – | – | – | – | – | –
Cc1c(C(=O)N2CCSCC2)cc(N(COC(=O)C(C)(C)C)S(=O)(=O)C(F)(F)F)c(C)c1C [Compound 285] | – | 10 | 35 | 0 | 20 | 0 | 0 | 40 | 90 | – | – | – | 0 | – | –
Cc1cc(C)c(N(COC(=O)C(C)(C)C)S(=O)(=O)C(F)(F)F)cc1C1=NOC(C(C)C)C1 (centres unmarked) [Compound 383] | 0 | – | 98 | 0 | 30 | – | – | 0 | 20 | 10 | 0 | 0 | – | – | –
Cc1cc(C)c(C2=NOC3OCCCC23)cc1NS(=O)(=O)C(F)(F)F (centres unmarked) [Compound 372] | 0 | 10 | 20 | 0 | 20 | 20 | 50 | 90 | 100 | – | – | – | – | – | –
Cc1cc(C)c(N2Cc3cccc(C)c3C2=O)cc1NS(=O)(=O)Cl [Compound 408] | 70 | – | 98 | – | – | – | – | 100 | – | 70 | 80 | 80 | – | 100 | 100
Cc1cc(C)c(N2CC3(CCCCC3)CC2=O)cc1NS(=O)(=O)C(F)(F)F [Compound 392] | 0 | – | 0 | 20 | 60 | – | – | 0 | 100 | 0 | 0 | 0 | – | – | –
CCc1cc(C)c(N(COC(=O)C(C)(C)C)S(=O)(=O)C(F)(F)F)cc1C1=NOC2CCCC12 (centres unmarked) [Compound 378] | 0 | 30 | 95 | 10 | 40 | 0 | 30 | 0 | 20 | – | – | – | – | – | –
COC1CCC2(CC1)CCN(c1cc(NS(=O)(=O)C(F)(F)F)c(C)cc1C)C2=O (centres unmarked) [Compound 398] | 0 | – | 85 | 20 | 70 | – | – | 90 | 100 | 10 | 30 | 60 | – | – | –
